Source: patent US9226919B2, “Methods for dosing an orally active 1,2,4-oxadiazole” (PTC Therapeutics, Inc., priority 2006, dated 2016)

Key:
Assay type in all cases: in vivo, human
serum CK = experiment: Serum CK levels, Phase 2 DMD study; conditions: majority of subjects at 4-, 8-, 10-, 20-, 40-mg/kg dose levels (p=0.03, 0.002, 0.001)
Protocol: Serum CK activity is assessed using a commercially available NADH-linked kinetic assay (Diagnostic Chemicals Ltd., Oxford, Conn.). Serum CK levels are measured prior to treatment, on day 1 (prior to first dose), day 7, day 14, day 21, and day 27 during the treatment period, and on day 42 and day 56 after treatment. Serum CK is increased in Duchenne muscular dystrophy and therefore is a readily measurable diagnostic marker for the disease and may serve as a potential biomarker for the pharmacological activity of the drug (Mendell et al., 1989, New Eng. J. Med. 320(24):1592-1597).
Pre-treatment of primary muscle cells from 24 of the 26 boys in the first 2 cohorts were available for in vitro myotube culture. […] These changes were statistically significant (p=0.03, p=0.002, p=0.001 for low-, middle- and high doses, respectively). The return of mean values toward baseline upon cessation of treatment provided additional support for pharmacological activity.

CFTR = experiment: Transepithelial potential difference (TEPD) chloride conductance, Phase 2 cystic fibrosis study; conditions: 15 CF patients
Protocol: The measurement of transepithelial potential difference (TEPD), also known as nasal potential difference, provides a sensitive evaluation of sodium and chloride transport directly in secretory epithelial cells via assessment of transepithelial bioelectric properties (Knowles et al., 1981, N. Engl. J. Med. 305(25):1489-95; Knowles et al., 1995, Hum. Gene Ther. 6:445). TEPD is performed in each nostril using standardized techniques (Standaert et al., 2004, Ped. Pulm. 37:385-92). In the procedure, a small plastic catheter is used to assess electrical differences across the outer cell membrane of nasal mucosa cells in the nostril. TEPD values are expressed in millivolts, or mV. A chloride conductance equal to or more electrically negative than −5.0 mV is generally considered to be in the normal range. […] TEPD assessments can also be made on rectal epithelial cells and lower respiratory epithelial cells. Because of the role of the CFTR protein in transporting chloride ions across cell membranes, and because of the absence of this protein, cystic fibrosis patients have an abnormal TEPD chloride conductance. As an endpoint, TEPD has the advantage that it can detect chloride transport changes that are a quantitative integration of the presence, functional activity, and apical location of the CFTR in airway cells. Furthermore, it is a direct measure of CFTR activity that is not likely to be affected by supportive or palliative treatments for CF (with the possible exception of systemically administered aminoglycoside antibiotics). Of importance is evidence that TEPD values can correlate with the degree of pulmonary dysfunction and radiographic abnormality (Ho et al., 1997, Eur. Respir. J. 10(9):2018-22; Fajac et al., 1998, Eur. Respir. J 12(6):1295-300; Sermet-Gaudelus et al., 2005, Am. J. Respit. Crit. Care Med. 171(9):1026-1031). […] Under baseline conditions, TEPD-assessed chloride channel activity is very unlikely to normalize spontaneously in patients with CF; any observed improvements in TEPD-assessed chloride channel activity are expected to specifically denote pharmacological activity of CFTR-correcting therapies. […]
Clinical endpoints were evaluated using the procedures set forth above. […] Pulmonary tests, including FEV1, FVC and MEF25-75, were measured prior to treatment, on day −1 of Cycle 2, on day 13 or 14 of Cycle 1 and day 13 or 14 of Cycle 2 in the study being conducted in Israel and the same parameters were measured prior to treatment and on day 13 or 14 of Cycle 2 in the study being conducted in the United States. […]

[1] = system: patients with nonsense-mutation-mediated cystic fibrosis; experiment: Investigator-asked changes in cystic fibrosis symptoms, Phase 2 studies
Excerpt: In addition, although changes in patient's symptoms were not formally measured through the use of a quality-of-life questionnaire, trial investigators were requested to ask about changes in patients' cystic fibrosis symptoms. In the 15 patients included in the interim analysis, 6 reported general improvements in well being, 6 reported decrease in cough and 10 reported decreased mucus thickness and easier clearing of mucus.
The device was used to obtain the data set forth in FIG. 2 and will be used to offer substantial supplementary data regarding the clinical benefits of 3-[5-(2-fluoro-phenyl)-[1,2,4]oxadiazol-3-yl]-benzoic acid during Phase 3 testing in CF. Existing informally collected symptom data from the Phase 2 studies of 3-[5-(2-fluoro-phenyl)-[1,2,4]oxadiazol-3-yl]-benzoic acid support this concept. […] Without being limited by theory, based on the hypothesis that 3-[5-(2-fluoro-phenyl)-[1,2,4]oxadiazol-3-yl]-benzoic acid-mediated induction of CFTR function would reduce airway obstruction and inflammation, a decrease in cough frequency could serve as a symptomatic integration of these pharmacological effects and might offer a more accurate and quantitative assessment than verbal patient reporting.

[2] = higher dose level (10, 10, 20 mg/kg TID, 14 days)
[3] = lower dose level (4, 4, 8 mg/kg TID, 14 days)
[4] = of 15 CF patients in interim analysis

O=C(O)c1cccc(-c2noc(-c3ccccc3F)n2)c1 [3-[5-(2-fluoro-phenyl)-[1,2,4]oxadiazol-3-yl]-benzoic acid]
Serum CK, end-of-treatment versus pretreatment values (serum CK): decreases in CK | Mean change in TEPD chloride conductance, best of nostrils (CFTR; [2]): −6.4 mV | Mean change in TEPD chloride conductance, mean of both nostrils (CFTR; [2]): −4.4 mV | Mean change in TEPD chloride conductance, best of nostrils (CFTR; [3]): −9.0 mV | Mean change in TEPD chloride conductance, mean of both nostrils (CFTR; [3]): −6.7 mV | Patients reporting decrease in cough [1, 4]: 6 | Patients reporting decreased mucus thickness and easier clearing of mucus [1, 4]: 10 | Patients reporting general improvements in well being [1, 4]: 6 | Patient-described on-study coughing ([1]; several patients, informally collected symptom data, Phase 2 studies): decreases in coughing
